Values quoted from earlier work as cited in US20260265370A1, “COMBINATION THERAPIES INVOLVING CLAUDIN 18.2 ANTAGONISTS FOR TREATMENT OF CANCER” (SUZHOU TRANSCENTA THERAPEUTICS CO., LTD., priority 2023, published 2026).
Read-outs that look alike come from different tables or passages of the source.

What was measured:
[1] = tested on: CLDN18.2+/HER2− locally advanced or metastatic gastric or gastroesophageal junction (mG/GEJ) adenocarcinoma; details: cited from earlier work; for ORR: patients with measurable disease
[2] = tested on: advanced GC/GEJ cancer; details: cited from earlier work
[3] = tested on: unresectable advanced or recurrent gastric cancer; details: cited from earlier work
[4] = CLDN18.2 ≥75% tumor cell staining 2+ or 3+
[5] = zolbetuximab+CAPOX vs PBO+CAPOX

## Zolbetuximab + CAPOX: GLOW arm: zolbetuximab plus capecitabine and oxaliplatin
[1]; [4]
  mDoR: 6.28 months
  mPFS: 8.21 months
  ORR: 53.8%
[1]; CLDN18.2 ≥75% tumor cell staining 2+ or 3+, listed as Zolbetuximab+CAPOX
  ORR: 53.8%
[1]; CLDN18.2 ≥75% tumor cell staining 2+ or 3+, listed as zolbetuximab+CAPOX
  ORR: 53.8%
[1]; in vivo
  OS median: 14.39 mo
  TEAE decreased appetite: 41.3%
  TEAE nausea: 68.5%
  TEAE vomiting: 66.1%
  drug-related TEAEs leading to death: 2.4%
  grade ≥3 TEAEs: 72.8%
  serious TEAEs: 47.2%
[1]; [5]
  HR of OS: 0.771
  HR of PFS: 0.687

## Zolbetuximab: first-in-class, chimeric monoclonal antibody specific to a CLDN18.2 epitope
[2]; in vivo
  tolerability: well-tolerated
[2]; phase IIa monotherapy, strong CLDN18.2 expression, ≥2+ staining intensity in 70% of tumor cells
  ORR: 14%

## Nivolumab: PD-1 checkpoint inhibitor
[3]; in vivo
  ORR: 11%
[3]; n=330
  12-month OS rate: 26.2%
[3]; progressed after two or more chemotherapy regimens
  overall survival (OS): 5.26 months
[3]; vs placebo
  HR of OS: 0.63
